What was measured:
[1] = molecular target: T1, Acrosin (purified from boar sperm) (Sus scrofa, UniProt P08001); assay: Acrosin inhibition in vitro (BAPNA substrate); format: biochemical; set-up: Inhibition (units/mg): dose or concentration left out as unconfirmed; conditions: for Inhibition (units/mg): other salts; for Inhibition (units/mg.): sodium salts
T1 construct: purified from boar sperm; from tissue; host or cells: boar sperm
Protocol: A control using the buffer solution without the test compound added is also run. A 200 μl-sample of the incubation mixture is then withdrawn and is added to a cuvette containing BAPNA (1 ml.) and triethanolamine buffer (2 ml.). The mixture is stirred and placed in a Gilford recording spectrophotometer. The increase in optical density at 383 nm is measured. One unit of acrosin activity is defined as the amount of acrosin which will cause an increase in optical density at 383 nm. of 0.001/minute. One unit of inhibitory activity is defined as the amount of inhibitor which will cause a reduction in the increase in optical density at 383 nm. of 0.001/minute.

[2] = molecular target: T2, Testicular bovine hyaluronidase (Bos taurus, UniProt Q2YDK3); assay: Hyaluronidase inhibition in vitro (chondroitin sulfate agar plate); format: biochemical; conditions: for % Inhibition: Conc. of Test Sol. 10 mg/ml; for inhibition at 1000 µg/mL: Conc. of Test Solution 1 mg/ml
T2 construct: purchased Sigma Chemical Company; host or cells: bovine testis
T2 sequence (Q2YDK3 36-553): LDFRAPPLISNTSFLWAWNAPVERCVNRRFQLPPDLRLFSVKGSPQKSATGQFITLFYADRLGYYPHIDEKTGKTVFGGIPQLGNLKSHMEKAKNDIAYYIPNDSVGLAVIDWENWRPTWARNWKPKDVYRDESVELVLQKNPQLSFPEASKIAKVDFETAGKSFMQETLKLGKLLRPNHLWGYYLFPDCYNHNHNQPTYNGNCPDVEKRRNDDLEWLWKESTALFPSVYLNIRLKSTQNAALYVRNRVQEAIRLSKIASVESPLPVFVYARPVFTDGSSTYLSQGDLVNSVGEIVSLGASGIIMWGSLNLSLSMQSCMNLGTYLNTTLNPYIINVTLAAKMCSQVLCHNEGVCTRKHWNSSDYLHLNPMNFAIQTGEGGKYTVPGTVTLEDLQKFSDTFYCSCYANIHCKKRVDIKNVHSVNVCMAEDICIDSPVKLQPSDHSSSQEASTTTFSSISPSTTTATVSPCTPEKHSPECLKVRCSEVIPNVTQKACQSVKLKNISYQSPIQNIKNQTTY
Protocol: The inhibition of hyaluronidase is assessed using chondroitin sulfate as the enzyme substrate according to the following procedure:
Agar plates containing chondroitin sulfate (0.1 percent) are prepared by the following method: water solutions of 1 percent agarose, 2 M sodium chloride (0.1 vol.), 1 M sodium acetate (pH 5.0, 0.1 vol), and sodium azide (0.5 mg./ml., 0.1 vol.) are mixed and the mixture is brought to the boiling temperature. […] After cooling to about 45° C., the resulting mixture (20 ml.) is poured onto a petri dish. The plates are allowed to cool to room temperature. A well 2 mm. in diameter is then cut in the agar surface. […] A control using only the buffer solution without added test compound is also run. The plates are then incubated overnight (about 16 hours) at 37° C. The zones of hydrolysis of chondroitin sulfate by hyaluronidase are visualized by flooding the plate with 10 percent cetyl trimethyl ammonium bromide. The area of the zone is logarithmically proportional to the concentration of hyaluronidase. Inhibitor activity is determined by comparing the area of hydrolysis from the test compound to the area of hydrolysis from the control. The results are expressed as percent inhibition calculated as follows: [formula]

[3] = Conc. of Test Solution 10 Mg/ml
[4] = sodium salts, Conc. of Test Solution 10 mg/ml

T1 sequence (P08001 40-338 limits assumed): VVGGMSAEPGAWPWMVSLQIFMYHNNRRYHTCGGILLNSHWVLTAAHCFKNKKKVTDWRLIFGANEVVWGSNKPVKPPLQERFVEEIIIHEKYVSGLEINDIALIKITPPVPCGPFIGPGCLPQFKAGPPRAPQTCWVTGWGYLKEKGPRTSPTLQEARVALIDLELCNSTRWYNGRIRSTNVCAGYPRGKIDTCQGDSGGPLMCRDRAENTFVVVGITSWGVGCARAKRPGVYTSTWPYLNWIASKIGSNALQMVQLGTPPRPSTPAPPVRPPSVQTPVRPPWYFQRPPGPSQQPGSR
T1 sequence (P08001 17-39 limits assumed): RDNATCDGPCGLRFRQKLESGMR

| Inhibition (units/mg.) ([1]; Conc. of Test Solution 1 Mg/ml) | inhibition at 1000 µg/mL ([2]; sodium salts) | SMILES | other results |
| --- | --- | --- | --- |
|  |  | CCCCCCCCCCCCCCOS(=O)(=O)O [CH3 (CH2)13 Li] | Inhibition (units/mg) [1]: 58,000 units/mg; % Inhibition ([2]; other salts): 27% |
| 148,000 units/mg. | 7% | CCCCCCCCCC(CCCCCCCC)OS(=O)(=O)O (stereo not drawn) [9-octadecyl] |  |
|  |  | CCCCCCCCCCCCOS(=O)(=O)O [CH3 (CH2)11 diethanolammonium] | Inhibition (units/mg) [1]: 90,000 units/mg; inhibition at 10000 µg/mL ([2]; 16 h, other salts, Conc. of Test Sol. 10 mg/ul): 100% |
| 90,000 units/mg. | 12% | CCCCCCCCC(CCCCC)OS(=O)(=O)O (stereo not drawn) [6-tetradecyl] |  |
| 123,000 units/mg. | 0% | CCCCCCCCCCCCCCCCCCCCCCCCOS(=O)(=O)O [n-tetracosyl] |  |
| 172,000 units/mg. | 7% | CC(C)CCCCCCCCCCCOS(=O)(=O)O [12-methyltridecyl] |  |
| 112,000 units/mg. | 0% | CCCCCCCC(CCCCCC)OS(=O)(=O)O (stereo not drawn) [7-tetradecyl] |  |
|  |  | CCCCCCCCCCCCCCCCCCOS(=O)(=O)O [n-octadecyl] | Inhibition (units/mg.) [1, 3]: 26,000 units/mg.; inhibition at 10000 µg/mL [2, 4]: 30% |
| 152,000 units/mg. | 0% | CCCCCCCC/C=C\CCCCCCCCOS(=O)(=O)O [oleyl] |  |
|  |  | CCCCCCCCCCCCCCOS(=O)(=O)O [CH3 (CH2)13 K] | Inhibition (units/mg) [1]: 62,000 units/mg; % Inhibition ([2]; other salts): 27% |
|  |  | CCCCCCCCCCCCOS(=O)(=O)[O-].[Na+] [n-dodecyl, Sodium lauryl sulfate] | inhibition at 10000 µg/mL [2, 4]: 71% |
| 210,000 units/mg. | 0% | CCCCC/C=C\C/C=C\CCCCCCCCOS(=O)(=O)O [linoleyl] |  |
|  |  | CCCCCCCCCCCOS(=O)(=O)O [n-hendecyl] | Inhibition (units/mg.) [1, 3]: 0 units/mg.; inhibition at 10000 µg/mL [2, 4]: 100% |
| 132,000 units/mg. | 0% | CCCCCCCCCCC(CCCCCCCC)COS(=O)(=O)O (stereo not drawn) [2-octyldodecyl] |  |
| 87,000 units/mg. | 100% | CCCCCCCCCCCCC(C)OS(=O)(=O)O (stereo not drawn) [2-tetradecyl] |  |
|  |  | CCCCCCCCCCCCCCCCOS(=O)(=O)O [n-hexadecyl] | Inhibition (units/mg.) [1, 3]: 15,200 units/mg.; inhibition at 10000 µg/mL [2, 4]: 75% |

| Inhibition (units/mg.) ([1]; Conc. of Test Solution 1 Mg/ml) | inhibition at 1000 µg/mL ([2]; sodium salts) | SMILES | other results |
| --- | --- | --- | --- |
| 216,000 units/mg. | 13% | CCCC/C=C/CCCCCCCCOS(=O)(=O)O [myristeladyl] |  |
| 240,000 units/mg. | 0% | CC(C)CCCC(C)CCOS(=O)(=O)O (stereo not drawn) [tetrahydrogeranyl] |  |
| 100,000 units/mg. | 0% | CCCCCCCCCCCCCCCCCCCCCCCCCCCOS(=O)(=O)O [n-heptacosyl] |  |
|  |  | CCCCCCCCCCCCCCCCCOS(=O)(=O)O [n-heptadecyl] | Inhibition (units/mg.) [1, 3]: 18,300 units/mg.; inhibition at 10000 µg/mL [2, 4]: 23% |
|  |  | CCCCCCCCCCCCCCOS(=O)(=O)O [CH3 (CH2)13 NH4] | Inhibition (units/mg) [1]: 47,000 units/mg; % Inhibition ([2]; other salts): 14% |
|  |  | CCCCCCCCCCCCCOS(=O)(=O)O [n-tridecyl] | Inhibition (units/mg.) [1, 3]: 3,200 units/mg.; inhibition at 10000 µg/mL [2, 4]: 80% |
|  |  | CCCCCCCCCCCCCCCCCCCCOS(=O)(=O)O [n-eicosyl] | Inhibition (units/mg.) [1, 3]: 31,800 units/mg.; inhibition at 10000 µg/mL [2, 4]: 0% |
|  |  | CCCCCCCCCCCCCCOS(=O)(=O)O [CH3 (CH2)13 Mg] | Inhibition (units/mg) [1]: 59,000 units/mg; % Inhibition ([2]; other salts): 14% |
| 102,000 units/mg. | 0% | CCCCCCCCCCC(CCC)OS(=O)(=O)O (stereo not drawn) [4-tetradecyl] |  |
| 160,000 units/mg. | 13% | CCCC/C=C\CCCCCCCCOS(=O)(=O)O [myristoleyl] |  |
|  |  | CCCCCCCCCCCCCCOS(=O)(=O)O [CH3 (CH2)13 Ca] | Inhibition (units/mg) [1]: 48,000 units/mg; % Inhibition ([2]; other salts): 38% |
| 29,000 units/mg. | 39% | CC(C)CCCC(C)CCCC(C)CCOS(=O)(=O)O (stereo not drawn) [3,7,11-trimethyldodecyl] |  |
| 28,000 units/mg. | 0% | CCCCCCCCC(CCCCCCC)OS(=O)(=O)O (stereo not drawn) [8-hexadecyl] |  |
| 123,000 units/mg. | 0% | CCCCCCCCCC(CCCCCC)OS(=O)(=O)O (stereo not drawn) [7-hexadecyl] |  |
|  |  | CCCCCCCCCCCCCCCOS(=O)(=O)O [n-pentadecyl] | Inhibition (units/mg.) [1, 3]: 14,300 units/mg.; inhibition at 10000 µg/mL [2, 4]: 60% |
| 300,000 units/mg. | 0% | CCCCCCCCCCCCCCCCCCCCCCOS(=O)(=O)O [n-docosyl] |  |
